From ChEMBL document CHEMBL1148555, “Macrocyclic peptidomimetic inhibitors of beta-secretase (BACE): first X-ray structure of a macrocyclic peptidomimetic-BACE complex” (Bioorg Med Chem Lett, 2006)

How the values were obtained:
[1] = Inhibition of Abeta peptide production in HEK293 cells overexpressing APP751swe; assay type: functional, cell-based; conditions: Homo sapiens
Beta-secretase 1 = Beta-secretase 1 (Homo sapiens, UniProt P56817); test: Inhibition of recombinant human BACE1 in FRET assay
Chain of Beta-secretase 1 (P56817 whole entry): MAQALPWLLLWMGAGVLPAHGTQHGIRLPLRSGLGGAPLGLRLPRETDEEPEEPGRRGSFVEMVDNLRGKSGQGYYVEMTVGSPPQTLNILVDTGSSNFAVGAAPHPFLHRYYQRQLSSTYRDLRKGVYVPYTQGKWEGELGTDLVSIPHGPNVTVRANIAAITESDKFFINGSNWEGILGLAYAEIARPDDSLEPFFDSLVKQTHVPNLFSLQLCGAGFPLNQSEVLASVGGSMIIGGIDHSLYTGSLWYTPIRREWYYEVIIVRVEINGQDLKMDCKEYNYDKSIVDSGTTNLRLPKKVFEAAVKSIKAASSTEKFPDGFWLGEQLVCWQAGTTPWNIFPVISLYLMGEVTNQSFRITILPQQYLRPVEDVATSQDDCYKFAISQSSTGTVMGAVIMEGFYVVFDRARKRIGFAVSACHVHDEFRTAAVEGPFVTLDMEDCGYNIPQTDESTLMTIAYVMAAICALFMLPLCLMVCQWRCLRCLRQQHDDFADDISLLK

IC50 [1] [µM]	IC50 (Beta-secretase 1) [µM]	Structure (SMILES)
> 100	9.7	CC(C)[C@H](NC(=O)CC[C@H](O)[C@@H]1CCCCCC[C@H](NC(=O)OC(C)(C)C)C(=O)N[C@@H](C)C(=O)N1)C(=O)NCc1ccccc1
2.83		CC(C)[C@H](NC(=O)OC(C)(C)C)C(=O)N[C@@H](C)C(=O)N[C@@H](Cc1ccccc1)[C@@H](O)C[C@@H](C)C(=O)N[C@H](C(=O)NCc1ccncc1)C(C)C
